Measured values: ChEMBL document CHEMBL1201862, “PubChem BioAssay data set” (2004)
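Method: 48-hour compound exposure of cells in 96-well plates, five concentrations, linear interpolation of endpoints. GI50 marks 50% less growth.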 Activity calls are given as the source filed them. No stated cut-off is given here; in the data, active = GI50 up to about 1.1 µM and inactive = higher.

How the values were obtained:
Test in all cases: DTP human tumour cell line panel, 48 h
SN12C = test system: SN12C
MOLT-4 = test system: MOLT-4
786-0 = test system: 786-0
HOP-62 = test system: HOP-62
UO-31 = test system: UO-31
HCC 2998 = test system: HCC 2998
MDA-MB-435 = test system: MDA-MB-435
NCI-H522 = test system: NCI-H522
OVCAR-5 = test system: OVCAR-5
NCI-H460 = test system: NCI-H460
ACHN = test system: ACHN
OVCAR-4 = test system: OVCAR-4
OVCAR-8 = test system: OVCAR-8
U-251 = test system: U-251
SNB-19 = test system: SNB-19
NCI/ADR-RES = test system: NCI/ADR-RES
SK-OV-3 = test system: SK-OV-3
SF-539 = test system: SF-539
SF-295 = test system: SF-295
BT-549 = test system: BT-549
HOP-92 = test system: HOP-92
EKVX = test system: EKVX
HCT-15 = test system: HCT-15
SF-268 = test system: SF-268
UACC-257 = test system: UACC-257
DU-145 = test system: DU-145
A498 = test system: A498
T47D = test system: T47D
IGROV-1 = test system: IGROV-1
A549 = test system: A549
K562 = test system: K562
RPMI-8226 = test system: RPMI-8226
NCI-H23 = test system: NCI-H23
CAKI-1 = test system: CAKI-1
HT-29 = test system: HT-29
MDA-MB-231 = test system: MDA-MB-231
Malme-3M = test system: Malme-3M
M14 = test system: M14
MCF7 = test system: MCF7
SW-620 = test system: SW-620
SK-MEL-5 = test system: SK-MEL-5
KM12 = test system: KM12
HCT-116 = test system: HCT-116
TK-10 = test system: TK-10
SK-MEL-28 = test system: SK-MEL-28
RXF 393 = test system: RXF 393
UACC-62 = test system: UACC-62
MDA-N = test system: MDA-N
NCI-H226 = test system: NCI-H226
SK-MEL-2 = test system: SK-MEL-2
SR = test system: SR
PC-3 = test system: PC-3
OVCAR-3 = test system: OVCAR-3
SNB-75 = test system: SNB-75
LOX IMVI = test system: LOX IMVI
COLO 205 = test system: COLO 205

Compound: CSc1ccc2c(cc1=O)[C@@H](NC(=O)c1ccc(N)cc1)CCc1cc(O)c(O)c(O)c1-2
- GI50 (SN12C): 27.9 µM (inactive)
- GI50 (MOLT-4): 22.6 µM (inactive)
- GI50 (786-0): 16.4 µM (inactive)
- GI50 (HOP-62): 15.1 µM (inactive)
- GI50 (UO-31): 26 µM (inactive)
- GI50 (HCC 2998): 14.5 µM (inactive)
- GI50 (MDA-MB-435): 7.85 µM (inactive)
- GI50 (NCI-H522): 7.67 µM (inactive)
- GI50 (OVCAR-5): 23.4 µM (inactive)
- GI50 (NCI-H460): 12 µM (inactive)
- GI50 (ACHN): 21.2 µM (inactive)
- GI50 (OVCAR-4): 22 µM (inactive)
- GI50 (OVCAR-8): 22 µM (inactive)
- GI50 (U-251): 25.4 µM (inactive)
- GI50 (SNB-19): 25.1 µM (inactive)
- GI50 (NCI/ADR-RES): 28.5 µM (inactive)
- GI50 (SK-OV-3): > 100 µM (inactive)
- GI50 (SF-539): 3.85 µM (inactive)
- GI50 (SF-295): 15.7 µM (inactive)
- GI50 (BT-549): 16 µM (inactive)
- GI50 (HOP-92): 41.4 µM (inactive)
- GI50 (EKVX): 30.1 µM (inactive)
- GI50 (HCT-15): 17.9 µM
- GI50 (SF-268): 13.6 µM (inactive)
- GI50 (UACC-257): 18.3 µM (inactive)
- GI50 (DU-145): 49.1 µM (inactive)
- GI50 (A498): 46.2 µM (inactive)
- GI50 (T47D): 66.1 µM (inactive)
- GI50 (IGROV-1): 25 µM (inactive)
- GI50 (A549): 23.6 µM (inactive)
- GI50 (K562): 9.66 µM (inactive)
- GI50 (RPMI-8226): 22.3 µM (inactive)

Compound: Cc1ncc(COP(=O)(O)O)c(/C=C2\SC(=S)NC2=O)c1O
- GI50 (SN12C): > 100 µM (inactive)
- GI50 (NCI-H23): > 100 µM (inactive)
- GI50 (CAKI-1): > 100 µM (inactive)
- GI50 (HT-29): > 100 µM (inactive)
- GI50 (MDA-MB-231): > 100 µM (inactive)
- GI50 (MOLT-4): > 100 µM (inactive)
- GI50 (Malme-3M): > 100 µM (inactive)
- GI50 (786-0): > 100 µM (inactive)
- GI50 (HOP-62): > 100 µM (inactive)
- GI50 (M14): > 100 µM (inactive)
- GI50 (UO-31): > 100 µM (inactive)
- GI50 (HCC 2998): > 100 µM (inactive)
- GI50 (MDA-MB-435): > 100 µM (inactive)
- GI50 (NCI-H522): > 100 µM (inactive)
- GI50 (MCF7): > 100 µM (inactive)
- GI50 (SW-620): > 100 µM (inactive)
- GI50 (SK-MEL-5): > 100 µM (inactive)
- GI50 (OVCAR-5): > 100 µM (inactive)
- GI50 (NCI-H460): > 100 µM (inactive)
- GI50 (KM12): > 100 µM (inactive)
- GI50 (ACHN): > 100 µM (inactive)
- GI50 (OVCAR-4): > 100 µM (inactive)
- GI50 (HCT-116): > 100 µM (inactive)
- GI50 (TK-10): > 100 µM (inactive)
- GI50 (OVCAR-8): > 100 µM (inactive)
- GI50 (U-251): > 100 µM (inactive)
- GI50 (SK-MEL-28): > 100 µM (inactive)
- GI50 (RXF 393): > 100 µM (inactive)
- GI50 (SNB-19): > 100 µM (inactive)
- GI50 (UACC-62): > 100 µM (inactive)
- GI50 (NCI/ADR-RES): > 100 µM (inactive)
- GI50 (SK-OV-3): > 100 µM (inactive)
- GI50 (MDA-N): > 100 µM (inactive)
- GI50 (SF-539): > 100 µM (inactive)
- GI50 (NCI-H226): > 100 µM (inactive)
- GI50 (SK-MEL-2): > 100 µM (inactive)
- GI50 (SF-295): > 22.3 µM (inactive)
- GI50 (BT-549): > 100 µM (inactive)
- GI50 (HOP-92): > 74.5 µM (inactive)
- GI50 (EKVX): > 100 µM (inactive)
- GI50 (HCT-15): > 100 µM
- GI50 (SF-268): > 100 µM (inactive)
- GI50 (SR): > 100 µM (inactive)
- GI50 (UACC-257): > 100 µM (inactive)
- GI50 (DU-145): > 100 µM (inactive)
- GI50 (A498): > 100 µM (inactive)
- GI50 (T47D): > 100 µM (inactive)
- GI50 (PC-3): > 100 µM (inactive)
- GI50 (OVCAR-3): > 100 µM (inactive)
- GI50 (SNB-75): > 100 µM (inactive)
- GI50 (IGROV-1): > 100 µM (inactive)
- GI50 (A549): > 100 µM (inactive)
- GI50 (K562): > 85.7 µM (inactive)
- GI50 (LOX IMVI): > 100 µM (inactive)
- GI50 (COLO 205): > 100 µM (inactive)
- GI50 (RPMI-8226): > 100 µM (inactive)
